Assay results taken from patent US9050347B2, “1,2,4-oxadiazole derivatives as drugs modulating the GLP-1 peptide receptor” (VIVIABIOTECH, S.L., priority 2011, dated 2015).

Key:
[1] = test system: rat insulinoma cells (INS1E cells); experiment: In vitro insulin secretion assay in INS1E cells; format: cell-based; settings: for enhancement of glucose-dependent insulin release caused by GLP-1 / direct activation of glucose-activated insulin secretion: rat insulinoma cells; for enhancement of glucose-dependent insulin release caused by GLP-1: GLP-1 10 nM, FIG. 3; for direct activation of glucose-activated insulin secretion: compound alone, FIG. 2
Method: The insulin secretion studies were performed in INS1E cells cultured in RPMI 1640 medium (Invitrogen, Switzerland) containing 11 mM glucose. The culture medium was supplemented with 10 mM Hepes (pH 7.3), 10% (v/v) heat-inactivated fetal bovine serum (Brunschwig AG, Switzerland), […] b-mercaptoethanol, 1 mM sodium pyruvate, […] penicillin and […] streptomycin (INS medium). Static secretion studies were performed in culture plates with a diameter of 2.5 cm in which the cells were grown until reaching confluence criteria. The in vitro studies allowed identifying compounds with intrinsic capacity to release insulin (FIG. 2) or which enhance the incretin actions of GLP-1 (FIGS. 3, 4 and 5).

[2] = Parenteral glucose overload assay; format: in vivo, male Wistar rats
Method: All the in vivo experiments were performed using male Wistar rats with a weight of 200-450 g. The animals were housed in individual cages in a room with controlled temperature (23° C.) and humidity (50%) with a 12/12 light and dark cycle. The animals had water and food ad libitum except in specific experimental procedures. The animals were handled once a day during the two days before the experimental sessions. All the products were dissolved in a mixture of 5% DMSO, 5% Tween 60/90% saline and intraperitoneally administered. The vehicle was 0.9% sterile saline for the parenteral glucose overload.
The parenteral glucose overload assay was performed in male Wistar rats (Harlan, Barcelona) deprived of food for 18 hours. The animals received an injection of sterile saline containing glucose which was administered at the dose of 2 gr/kg in a volume of 2 ml/kg. The plasma glucose levels were measured by means of glucometers in tail blood using reactive strips of glucose oxidase, at times 0, 5, 10, 15, 30, 45, 60 and 120 minutes after the administration of glucose. The animals received an injection of the drugs under study 15 minutes before the administration of intraperitoneal glucose. After measuring the glucose, an analysis under the curve for compound and dose was performed. This analysis allows evaluating the time intensity of the hyperglycemia. […]

| SMILES | enhancement of glucose-dependent insulin release caused by GLP-1 [1] | direct activation of glucose-activated insulin secretion [1] | allosteric modulation of insulin secretion stimulated by a fixed concentration of GLP-1 ([1]; insulinoma cells, 0.2 nM GLP-1, increasing compound concentration, FIG. 5) | allosteric modulation of insulin release stimulated by increasing doses of GLP-1 ([1]; insulinoma cells, compound at 0.1 nM, FIG. 4) | physiological response (glycemia) in the parenteral glucose overload test ([2]; rats deprived of food for 18 hours, glucose 2 gr/kg, compound 15 minutes before, FIG. 6) | intensity of the hyperglycemia (area under the curve of the glycemia) ([2]; rats, parenteral glucose overload test, several doses, FIG. 7) |
| --- | --- | --- | --- | --- | --- | --- |
| O=C(CCc1ccccc1)[C@@H]1CCCN(Cc2nc(-c3ccc(C(F)(F)F)cc3)no2)C1 [Compound C1, 3-phenyl-1-[(3R)-1-[[3-[4-(trifluoromethyl)phenyl]-1,2,4-oxadiazol-5-yl]methyl]piperidin-3-yl]propan-1-one] | enhance | direct activators | – | – | – | – |
| CC(=O)NCC[C@@H]1CCCCN1Cc1nc(-c2ccc(C(F)(F)F)cc2)no1 [Compound C3, N-[2-[(2S)-1-[[3-[4-(trifluoromethyl)phenyl]-1,2,4-oxadiazol-5-yl]methyl]piperidin-2-yl]ethyl]acetamide] | enhance | – | – | – | – | – |
| NC(=O)C1CCN(Cc2nc(-c3ccc(C(F)(F)F)cc3)no2)CC1 [Compound C4, 1[[3-[4-(trifluoromethyl)phenyl]-1,2,4-oxadiazol-5-yl]methyl]piperidin-4-carboxamide] | enhance | direct activators | – | – | – | – |
| FC(F)(F)c1ccc(-c2noc(CN3CCCC[C@H]3CCc3ccccn3)n2)cc1 [Compound C5, 5-[[(2S)-2-(2-pyridin-2-ylethyl)piperidin-1-yl]methyl]-3-[4-(trifluoromethyl)phenyl]-1,2,4-oxadiazole] | enhance | direct activators | – | – | – | – |
| FC(F)(F)c1ccc(-c2noc(CN3CCCC(CN4CCOCC4)C3)n2)cc1 (stereo not shown) [Compound C6, 4-[[1[[3-[4-(trifluoromethyl)phenyl]-1,2,4-oxadiazol-5-yl]methyl]piperidin-3-yl]methyl]morpholine] | enhance | direct activators | enhances in a dose-dependent manner | enhances | improves the physiological response | induces in a dose-dependent manner a reduction of the intensity of the hyperglycemia |
